Entries after “also recorded” stand apart in the source; their conditions may differ.
Assays:
[1] = tested on: POMGNT1 knockout human RPE cells; experiment: Trans-epithelial electrical resistance (TEER) of RPE monolayers; assay type: cell-based; details: transwell culture
Experimental: The RPE is a polarized epithelial monolayer which lies between the photoreceptors and the choroid. The RPE is essential to keep neural retinal healthy by maintenance of many important functions including light absorption, trans-epithelial transport, phagocytosis, and secretion of growth factors. The feature of healthy RPE is the generation of a trans-epithelial electrical resistance by specific tight junctions between epithelial cells. Trans-epithelial electrical resistance (TEER) was determined in RPE monolayers in WT and POMGNT1 knockout cells using Millicell-ERS Voltmeter (MERS00002, EMD Millipore) with transwell culture to evaluate the cell monolayer integrity.
POMGNT1 knockout human RPE cell were treated with RIPA-56, a potent, selective RIP1 inhibitor or with GW806742X, a MLKL inhibitor.

Pomgnt1^L120R/L120R mice = experiment: Scotopic ERG after treatment of Pomgnt1^L120R/L120R mice; assay type: in vivo; details: 6-month-old mice, 3 months after injection; compared with AAV8-GFP treated group; RIPA-56 10 mg/Kg twice a week IP; AAV 1 μL 1×10^9 vg subretinal
Experimental: To evaluate retinal function in vivo, ERG was recorded with various light stimulus intensities under dark-adapted scotopic condition. Scotopic ERG records rod photoreceptor (a-wave), signal from rod to rod bipolar cell (b-wave), and retinal pigment epithelium (c-wave). […] This reduction in ERG a-, b, and c-wave amplitude indicated the function of rod photoreceptor, rod bipolar cells post-synaptic signal and RPE were greatly affected in Pomgnt1^L120R/L120R mouse retina.

[2] = tested on: POMGNT1 knockout human RPE cells; experiment: Immunoblotting of autophagy-related proteins and necroptosis markers; assay type: cell-based

Row | scotopic ERG a-, b-, and c-wave amplitudes (Pomgnt1^L120R/L120R mice) | Structure (SMILES) | TEER level [1] | expression of beclin1, p62 and LC3b [2] | phospho-RIP3 and phosphor-MLKL [2]
1 |  | CN(c1ccc(NC(=O)Nc2ccc(OC(F)(F)F)cc2)cc1)c1ccnc(Nc2cccc(S(N)(=O)=O)c2)n1 [GW806742X] | significant improvement |  | 
2 | significantly improved | CCC(C)(C)C(=O)N(O)Cc1ccccc1 [RIPA-56] | significant improvement; also recorded: improve | significantly decrease | inhibit

From patent US20240156755A1, “USE OF RIP1 INHIBITOR OR MLKL INHIBITOR FOR TREATING OR PREVENTING HEREDITARY RETINAL DYSTROPHY” (TZU CHI UNIVERSITY, priority 2022, published 2024)
